Measured values taken from PubChem BioAssay AID179 (DTP/NCI, 2004).
Activity calls are given as the source filed them.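 The calls were made as follows: active = compounds giving half or more protection of infected cells from virus-caused growth loss, again on retest; inactive = the rest.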

Test system: CEM cells HIV-1 protection, formazan growth assay
Assay: NCI AIDS Antiviral Assay
Conditions: for IC50: measured here: growth of uninfected CEM cells
In short: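 Human CEM cells, uninfected and HIV-1-infected, received five drug concentrations, and growth was read by soluble formazan assay. Compounds giving at least 50% protection were retested; reproducible 100% protection defined confirmed active.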

Work on `C(=C\c1csnn1)/c1cccnc1` yielded an EC50 greater than 316 µM and an IC50 of 182 µM.

`Cn1c(N2CCCC2)c(C=O)c(=O)n(C)c1=O` was tested, and the outcome was “inactive”.

In the case of `O=S(=O)(N1CCCCN(S(=O)(=O)C(F)(F)F)CCCN(S(=O)(=O)C(F)(F)F)CCCCN(S(=O)(=O)C(F)(F)F)CCCN(S(=O)(=O)C(F)(F)F)CCCCN(S(=O)(=O)C(F)(F)F)CCCN(S(=O)(=O)C(F)(F)F)CCCCN(S(=O)(=O)C(F)(F)F)CCC1)C(F)(F)F`, the EC50 is reported as greater than 200 µM and the IC50 is reported as greater than 200 µM.

For `CCN(CC)CCN1C(=O)C2C3C=CC(C2C1=O)C1C2C(=O)N(CCN(CC)CC)C(=O)C2C31` (stereo not drawn), the EC50 was greater than 200 µM and the IC50 was greater than 200 µM.

`NCCC1([N+](=O)[O-])C=CN=CC1` (stereo not drawn) was tested, and the outcome was “inactive”.

With `O=P1(N(CCCl)CCCl)NCCCO1` (stereo not drawn) the EC50 was greater than 955 µM and the IC50 was 302 µM.

With `CC(=O)[O-].CC(=O)[O-].O=C(N/N=C/c1cc(Cl)cc(Cl)c1O)c1ccncc1.[Ni+2]` the outcome was “inactive”.

`CCCO/S(=N\S(=O)(=O)c1ccccc1)c1ccccc1[N+](=O)[O-]` (stereo not drawn) gave an EC50 greater than 676 µM and an IC50 greater than 676 µM.

`O=S(=O)(c1ccccc1)c1ccccc1` was tested, and the EC50 was greater than 204 µM and the IC50 was greater than 204 µM.

Work on `O=[N+]([O-])/C=C/c1cn(CCCCCCCCCCCCn2cc(/C=C/[N+](=O)[O-])c3ccccc32)c2ccccc12` yielded an EC50 greater than 100 µM and an IC50 greater than 100 µM.

`Cc1nc(CC2C(CO[Si](C)(C)C(C)(C)C)OC(n3ccc(=O)[nH]c3=O)C2O[Si](C)(C)C(C)(C)C)no1` (stereo not drawn) showed an EC50 greater than 200 µM and an IC50 of 6.61 µM.

Compound `CC1(O)C(=O)OC2CC([C@]3(O)CCC4[C@@H]5C[C@H]6O[C@]67[C@@H](O)C=CC(=O)[C@]7(C)C5CC[C@@]43C)C1(C)C2` (stereo partly drawn) has an EC50 greater than 200 µM and an IC50 of 11.7 µM.

`O=C(CSc1nnc(-c2ccc(N=Cc3ccc(Cl)cc3)cc2)o1)Nc1ccc([N+](=O)[O-])cc1` was tested, and the EC50 was greater than 38 µM and the IC50 was 15.5 µM.

`Cn1c(O)c(C=Nc2ccc(Cl)cc2Cl)c(=O)n(C)c1=O` gave an EC50 greater than 200 µM and an IC50 greater than 200 µM.

Compound `O=c1[nH]c(N/N=C\C(=N/Nc2nc3ccccc3c(=O)[nH]2)C(O)C(O)C(O)CO)nc2ccccc12` (stereo not drawn) has an EC50 greater than 200 µM and an IC50 greater than 200 µM.

`COc1cc2c(cc1OC)CC(N=[N+]=[N-])c1cc(OC)c(OC)cc1/C=C\2` (stereo not drawn) showed an EC50 greater than 200 µM and an IC50 of 70.8 µM.

For `Cc1nc2c(nc1C)C(=O)C(N1CCCCC1)=CC2=O`, the outcome was “inactive”.

Work on `O=C1N[C@@H]([C@H]2CC[C@H](Cl)CN2)C(=O)N[C@H]1[C@H]1CC[C@H](Cl)CN1` yielded an EC50 greater than 5.89 µM and an IC50 of 0.0141 µM.

For `C=C(C)C(=O)O[C@H]1CC2(CO)O[C@@H]2CC/C(COC(C)=O)=C/C2OC(=O)C(=C)[C@@H]21` (stereo partly drawn), the EC50 was greater than 200 µM and the IC50 was 4.37 µM.

`CC(=O)OC1CC2(C)C(OC(C)=O)CC1C2(C)C` (stereo not drawn) was tested, and the EC50 was greater than 200 µM and the IC50 was greater than 200 µM.

Work on `Cc1ccccc1C(=O)N1CCN(C(=O)c2ccccc2C)CC1` yielded an EC50 greater than 145 µM and an IC50 greater than 145 µM.

With `COc1cc(-c2cc(-c3ccccc3)c3cc(Cl)ccc3n2)cc(OC)c1OC` the EC50 was greater than 200 µM and the IC50 was greater than 200 µM.

For `O=C(O)C[S][Bi]([S]CC(=O)O)[S]CC(=O)O`, the outcome was “inactive”.

`CCOC(=O)NP(=O)(NNc1ccccc1)NNc1ccccc1` was tested, and the outcome was “inactive”.

With `CS(=O)(=O)OCC1OS(=O)OC1COS(C)(=O)=O` (stereo not drawn) the EC50 was greater than 200 µM and the IC50 was 4.9 µM.

`C=CCNC(=S)/N=C/C(C(=O)Nc1ccccc1OC)=C(\C)O` was tested, and the outcome was “inactive”.

In the case of `C/C(CN1C(=O)c2ccccc2C1=O)=N\NS(=O)(=O)c1ccc(C)cc1`, the EC50 is reported as greater than 355 µM and the IC50 is reported as greater than 355 µM.

Work on `COC(=O)c1cc(C)ccc1CC(Cc1ccccc1C)C(=O)OC` (stereo not drawn) yielded an EC50 greater than 200 µM and an IC50 of 37.2 µM.

With `CN1C(=O)C(O)C[C@@H]1c1ccc(F)cc1` (stereo partly drawn) the outcome was “inactive”.

With `O=C(O)CCC(NC(=O)c1ccc(Nc2cnc3ccc(C(F)(F)F)cc3n2)cc1)C(=O)O` (stereo not drawn) the EC50 was greater than 200 µM and the IC50 was greater than 200 µM.

`NC(=S)N/N=C1\c2ccccc2CCC1CCC1(O)CCc2ccccc2C1=O` (stereo not drawn) showed an EC50 greater than 200 µM and an IC50 of 31.6 µM.

`COc1ccccc1NC(=O)/C(=C/n1c(=S)sc2ccccc21)C(C)=O` gave an EC50 greater than 200 µM and an IC50 of 115 µM.

With `Nc1ccc(F)cc1-c1nc2ccc(F)cc2c2nc3ccccc3n12` the outcome was “inactive”.

For `O=c1n(-c2ccccc2)c(=O)n2n1C1C=CC2C23C=CC12CCCC3` (stereo not drawn), the EC50 was greater than 100 µM and the IC50 was 77.6 µM.

For `CC1=CC(C)(C)SC(SSSSC2=NC(C)=CC(C)(C)S2)=N1`, the EC50 was greater than 200 µM and the IC50 was 29.5 µM.

In the case of `COC(=O)c1ccccc1/C=C1\Cc2ccc3ccccc3c2C1C` (stereo not drawn), the EC50 is reported as greater than 200 µM and the IC50 is reported as greater than 200 µM.

`CCOC(=O)C1=C(c2ccccc2)C12N(Cc1ccccc1)C(=O)C2(c1ccccc1)c1ccccc1` (stereo not drawn) was tested, and the EC50 was greater than 200 µM and the IC50 was 11 µM.

In the case of `O=C(O)C1c2ccccc2C(C(=O)O)c2ccccc21` (stereo not drawn), the outcome is reported as “inactive”.

For `O=C(N/N=C/c1ccc(Br)cc1)N/N=C/c1ccc(Br)cc1`, the EC50 was greater than 200 µM and the IC50 was 31.6 µM.

`O=C1c2ccccc2C(=O)C1C(c1ccc(F)cc1)C1C(=O)c2ccccc2C1=O` showed an EC50 greater than 46.8 µM and an IC50 of 36.3 µM.

Compound `COc1ccc(C2C(Cl)C(=O)N2n2cnc3ccccc3c2=O)cc1OC` (stereo not drawn) has an EC50 greater than 339 µM and an IC50 of 46.8 µM.

`C=Cc1c(C#N)nc(C)c(C)c1-c1ccc(OC)c(OC)c1OCc1ccccc1` was tested, and the EC50 was greater than 200 µM and the IC50 was 14.1 µM.

`CONc1ncnc2c1ncn2C1OC(CO)CC1F` (stereo not drawn) was tested, and the EC50 was greater than 178 µM and the IC50 was greater than 178 µM.

In the case of `Cc1ccc(S(=O)(=O)OC(c2ccccc2)c2ccccc2)cc1`, the EC50 is reported as greater than 15.5 µM and the IC50 is reported as 10.5 µM.

With `c1ccc2c(c1)CCN(C1=NCCO1)C2` the EC50 was greater than 200 µM and the IC50 was 178 µM.

`COc1ccc([C@H]2CC(=O)C[C@H](c3ccc(OC)cc3)C23C(=O)c2ccccc2C3=O)cc1` was tested, and the EC50 was greater than 200 µM and the IC50 was 2.63 µM.

`O=C(O)CCC1NC(/C(=C/c2ccccc2O)NC(=O)c2ccccc2)OC1=O` (stereo not drawn) was tested, and the EC50 was greater than 151 µM and the IC50 was greater than 151 µM.

Compound `Cc1ccc(NC(=O)c2c(NC(=O)CN3CCOCC3)c(C#N)c3n2CCC3)cc1` has an EC50 greater than 200 µM and an IC50 greater than 200 µM.

For `CC(=O)OCC1OC(N2C(c3ccccc3)=CC(c3ccco3)C(C#N)=C2S)C(OC(C)=O)C(OC(C)=O)C1OC(C)=O` (stereo not drawn), the EC50 was 178 µM and the IC50 was greater than 200 µM.

`CCOc1ccc2nc(NC(=O)C3C4CCC(O4)C3C(=O)O)sc2c1` (stereo not drawn) showed an EC50 greater than 200 µM and an IC50 of 135 µM.

With `OC[C@@H](O)[C@H](O)[C@H](O)[C@@H](O)C1SCCCS1` the EC50 was greater than 200 µM and the IC50 was greater than 200 µM.

`COc1ccc(C(=O)/C(Br)=C/C(=O)O)cc1` was tested, and the EC50 was greater than 427 µM and the IC50 was 22.9 µM.

`Cc1ccc(C(=O)/C=C/c2ccccc2Cl)cc1` was tested, and the EC50 was greater than 5.62 µM and the IC50 was greater than 5.62 µM.

In the case of `CNC(=O)OCC1=CC(=O)C(C)=CC1=O`, the EC50 is reported as greater than 60.3 µM and the IC50 is reported as 5.5 µM.

`COc1ccccc1NC(=O)C1=C(C)NC(C)=C(C(=O)Nc2ccccc2OC)C1c1ccccc1[N+](=O)[O-]` gave an EC50 greater than 13.5 µM and an IC50 greater than 13.5 µM.

Work on `O=C(O)Cc1cccc2c1OC(c1ccccc1)C(C(=O)c1ccccc1)C2=O` (stereo not drawn) yielded an EC50 greater than 200 µM and an IC50 of 75.9 µM.

`CC(C)=CCC/C(C)=C/COC(=O)N(c1ccccc1)c1ccccc1` was tested, and the EC50 was greater than 200 µM and the IC50 was greater than 200 µM.

With `Nc1cc(=O)[nH]c(=S)n1-c1ccc(Cl)cc1` the EC50 was greater than 200 µM and the IC50 was greater than 200 µM.

For `CCCC(O)[C@@H](O)c1ccc2c(c1O)C(=O)c1c(OC)cccc1C2=O` (stereo partly drawn), the outcome was “inactive”.

With `O=c1oc2ccccc2c(-c2ccc(O)cc2)c1Oc1ccccc1` the EC50 was greater than 200 µM and the IC50 was 20 µM.

`CCOC(=O)Nc1ccc2c(c1)c(CCCCCCc1nc3ccccc3c3ccc(NC(=O)OCC)cc13)nc1ccccc12` showed an EC50 greater than 100 µM and an IC50 of 21.4 µM.

With `N#Cc1c2ccccc2cn1-c1ccc(F)cc1` the EC50 was greater than 200 µM and the IC50 was 79.4 µM.
